Data set [1] has as its system HMLER cells. The conditions noted are these: 72 h incubation, cited from earlier work.
In data set [2] the test system is HMLER-shEcad mammospheres. The arrangement: method as in PMID 26806362, PMID 31588328, PMID 28932846, PMID 31209956. The conditions noted are these: 120 h incubation, ref [14],[37],[39],[40], read-out: Mammosphere IC50; cited from earlier work.
The subject of data set [3] is HMLER-shEcad cells. The conditions noted are these: 72 h incubation, cited from earlier work.
The subject of data set [4] is HMLER cells. Put plainly: MTT cytotoxicity assay, bulk breast cancer cells. Format: cell-based, human. The conditions noted are these: 72 h incubation. Here is the method:
(§1) Exponentially growing cells were seeded at a density of approximately 5 × 10^3 cells per well in 96-well flat-bottomed microplates, and allowed to attach for 24 h prior to the addition of compounds. […] Stock solutions of the compounds were prepared as 10 mM DMSO solutions, and diluted using cell media. […] After 72 h, 20 μL of MTT (4 mg mL^−1 in PBS) was added to each well, and the plates were incubated for an additional 4 h at 37 °C. The media/MTT mixture was eliminated, and DMSO (100 μL per well) was added to dissolve the formazan precipitates. […] Absorbance values were normalised to (DMSO-containing) control wells, and plotted as concentration of compound versus % cell viability. IC50 values were interpolated from the resulting dose-dependent curves.
Background: Tetrazolium assays rely on reduction of a dye to a coloured formazan, in cell work by metabolically active cells.

Data set [5] deals with HMLER-shEcad cells. Put plainly: MTT cytotoxicity assay, breast CSCs. The conditions noted are these: 72 h incubation. Format: cell-based, human. Here is the method:
as §1

The subject of data set [6] is HMLER-shEcad cells. Put plainly: Intracellular ROS assay (DCFH-DA). The class given is cell-based, human. The conditions noted are these: 2 × IC50 value. Here is the method: HMLER-shEcad cells (5 × 10^3) were seeded in each well of a 96-well plate. […] The intracellular ROS level was determined via measurement of the fluorescence of the solutions in each well at 529 nm (λex = 504 nm).

Data set [7] deals with HMLER-shEcad mammospheres. The data set can be described thus: Mammosphere viability assay (TOX8). The class given is cell-based, human. The following applies: TOX8, 120 h incubation. Here is the method:
HMLER-shEcad cells (5 × 10^3) were plated in ultralow-attachment 96-well plates (Corning) and incubated in MEGM supplemented with B27 (Invitrogen), 20 ng mL^−1 EGF, and 4 μg mL^−1 heparin (Sigma), for 5 days. Studies were also conducted in the presence of 1–3, cisplatin and salinomycin (0–133 µM). Mammospheres treated with 1–3, cisplatin, and salinomycin (0.5 µM, 5 days) were counted and imaged, using an inverted microscope. The viability of the mammospheres was determined via the addition of a resazurin-based reagent, TOX8 (Sigma). After incubation for 16 h, the fluorescence of the solutions was read at 590 nm (λex = 560 nm). Viable mammospheres reduce the amount of the oxidised TOX8 form (blue) and, concurrently, increase the amount of the fluorescent TOX8 intermediate (red), indicating the degree of mammosphere cytotoxicity caused by the test compound. Fluorescence values were normalised to DMSO-containing controls, and plotted as concentration of test compound versus % mammospheres viability. IC50 values were interpolated from the resulting dose-dependent curves. The reported IC50 values are the average of two independent experiments, each consisting of two replicates per concentration level (n = 4).

A further data set has as its system BEAS-2B cells. The data set can be described thus: MTT cytotoxicity assay, non-cancerous bronchial epithelium cells. Format: cell-based. The conditions noted are these: 72 h incubation. Here is the method:
Exponentially growing cells were seeded at a density of approximately 5 × 10^3 cells per well in 96-well flat-bottomed microplates, and allowed to attach for 24 h prior to the addition of compounds. Various concentrations of the test compounds (0.19–100 μM) were added, and the plates were incubated for 72 h at 37 °C (total volume 200 μL). Stock solutions of the compounds were prepared as 10 mM DMSO solutions, and diluted using cell media. The final concentration of DMSO in each well was ≤1 %. After 72 h, 20 μL of MTT (4 mg mL^−1 in PBS) was added to each well, and the plates were incubated for an additional 4 h at 37 °C. The media/MTT mixture was eliminated, and DMSO (100 μL per well) was added to dissolve the formazan precipitates. The optical density was measured at 550 nm, using a 96-well multiscanner autoreader. Absorbance values were normalised to (DMSO-containing) control wells, and plotted as concentration of compound versus % cell viability. IC50 values were interpolated from the resulting dose-dependent curves.

The nature of data set [8]: Water–octanol partition coefficient (LogP), shake-flask method and ICP-MS. The class given is physicochemical. The following applies: water/1-octanol, room temperature, 24 h. How it is done: The 1-octanol used in this experiment was pre-saturated with water. […] The tube was shaken at room temperature for 24 h. The two phases were separated via centrifugation, and the copper content in the water phase was determined via ICP-MS.

Where [9] appears, read: ref [1,2] of the SI (Eskandari et al. 2016; Eskandari, Suntharalingam 2019).

Each structure is given as a SMILES string. Like-named read-outs stand apart in the source and are kept apart here.

Consider seven molecules from paper PMC10489748, “The Anti-Breast Cancer Stem Cell Potency of Copper(I)-Non-Steroidal Anti-Inflammatory Drug Complexes” (Molecules, 2023).

Take `N.N.[Cl][Pt][Cl]` [cisplatin]: the IC50 in the data set on HMLER cells [1] (ref [14],[37],[39],[40]) is 2.57 ± 0.02 µM; in data set [2] it was 13.5 ± 2.34 µM; in the data set on HMLER-shEcad cells [3] (ref [14],[37],[39],[40]), 5.65 ± 0.3 µM.

With `O=C(O)Cc1ccccc1Nc1c(Cl)cccc1Cl` [diclofenac], the IC50 was 69.5 ± 8.7 µM in the data set on HMLER cells [1] (setting [9]) and 54.74 ± 0.23 µM with HMLER-shEcad cells [3] (setting [9]).

With `COc1ccc2cc([C@H](C)C(=O)O)ccc2c1` [naproxen], the IC50 in the data set on HMLER cells [1] (setting [9]) and with HMLER-shEcad cells [3] (setting [9]) was over 100 µM throughout.

Take `COc1ccc2cc(C(C)C(=O)[O-])ccc2c1.[Cu+].c1ccc(P(c2ccccc2)c2ccccc2)cc1.c1ccc(P(c2ccccc2)c2ccccc2)cc1` [compound 2, [Cu^I(naproxen)(PPh3)2]]: the IC50 in the data set on HMLER cells [4] stood at 2.36 ± 0.03 µM; in the data set with HMLER-shEcad cells [5], 4.46 ± 0.08 µM; in data set [7], 11.8 ± 0.7 µM; in the data set with BEAS-2B cells, 4.11 ± 0.001 µM. For the same molecule, the “Increase in ROS levels” value with HMLER-shEcad cells [6] (16 h exposure) is reported as 41%; in the data set with HMLER-shEcad cells [6] (24 h exposure) it was 32%.

In turn, `O=C([O-])c1ccccc1O.[Cu+].c1ccc(P(c2ccccc2)c2ccccc2)cc1.c1ccc(P(c2ccccc2)c2ccccc2)cc1` [compound 3, [Cu^I(salicylate)(PPh3)2]] came in with a LogP in data set [8] of 0.82 ± 0.002. The IC50 in the data set with HMLER cells [4] turned out to be 2.13 ± 0.002 µM; in the data set with HMLER-shEcad cells [5], 4.55 ± 0.001 µM; in data set [7], 13.6 ± 0.74 µM; in the data set with BEAS-2B cells it was 3.53 ± 0.21 µM. The “Increase in ROS levels” value stood at 191% with HMLER-shEcad cells [6] (16 h exposure) and 75% in the data set on HMLER-shEcad cells [6] (24 h exposure).

Turning to `CC[C@@H](C(=O)[C@@H](C)[C@@H](O)[C@H](C)[C@@H]1O[C@@H]([C@@H](CC)C(=O)O)CC[C@@H]1C)[C@H]1O[C@]2(C=C[C@@H](O)[C@]3(CC[C@@](C)([C@H]4CC[C@](O)(CC)[C@H](C)O4)O3)O2)[C@H](C)C[C@@H]1C` [salinomycin], the IC50 in the data set with HMLER cells [1] (ref [14],[37],[39],[40]) was 11.4 ± 0.42 µM; in data set [2] it was 18.5 ± 1.5 µM; in the data set with HMLER-shEcad cells [3] (ref [14],[37],[39],[40]), 4.23 ± 0.35 µM.

For `O=C([O-])Cc1ccccc1Nc1c(Cl)cccc1Cl.[Cu+].c1ccc(P(c2ccccc2)c2ccccc2)cc1.c1ccc(P(c2ccccc2)c2ccccc2)cc1` [compound 1, [Cu^I(diclofenac)(PPh3)2]], the IC50 amounted to 2.42 ± 0.1 µM in the data set with HMLER cells [4], 4.61 ± 0.18 µM in the data set on HMLER-shEcad cells [5], 18.2 ± 2.02 µM in data set [7] and 4.32 ± 0.13 µM with BEAS-2B cells. The “Increase in ROS levels compared to untreated control cells” value with HMLER-shEcad cells [6] (1 h exposure) worked out at 76%. The “Change of intracellular ROS status” value in the data set with HMLER-shEcad cells [6] (exposure beyond 1 h (3–24 h)) is listed as “did not markedly alter”.

One may read the IC50 as the concentration that inhibits the measured activity by half. Usually LogP stands for the decadic logarithm of the partition coefficient of the neutral form, usually between octanol and water. The low end stands for a more hydrophilic compound, the high end for a more lipophilic compound.
